Experimental data as given in US6414005B1, “Heterocyclic compounds having nos inhibitory activities” (Chugai Seiyaku Kabushiki Kaisha, priority 1997, dated 2002).
pIC50: −log10 of the molar value. Counter-ions that a name gives are not always drawn. Like-named read-outs stand apart in the source and are kept apart here.

Legend:
nNOS (type 1) = target: T1, nNOS (type 1) (Rattus norvegicus, UniProt P29476); experiment: NOS activity, conversion of L-[3H]arginine to L-[3H]citrulline, crude enzyme of nNOS; assay type: biochemical; settings: for IC50: crude enzyme from rat cerebral cortex, soluble cytosolic fraction, 100 nM L-[3H]arginine, 37° C., 10 min, read-out: IC50 (nM) nNOS (type 1); for Ratio of IC50 eNOS/nNOS / Ratio of IC50 iNOS/nNOS: index of selectivity
T1 construct: from tissue; host or cells: rat cerebral cortex, 100,000 x g supernatant (cytosol)
Procedure: The crude enzyme of nNOS was prepared by the following procedure. Normal untreated male Sprague Dawley (SD) rats (body weight, 300-400 g) were decapitated; the whole brain was immediately taken out from each animal and the cerebral cortex was separated on ice. Then, 5 volumes of 50 mM Tris-HCl containing 1 mM DTT (pH 7.4) was added and the mixture was homogenized for 3 min and centrifuged at 1,000×g for 10 min. The resulting supernatant was further centrifuged at 100,000×g for 60 min and a soluble cytosolic fraction of the finally obtained supernatant was used as the crude enzyme of nNOS.
(§1) The reaction was started by addition of L-[^3H] arginine. After incubation at 37° C. for 10 min, the reaction was terminated by addition of 2 ml of 50 mM Tris-HCl (pH 5.5) containing 1 mM EDTA and placing the mixture on ice. The reaction solution was passed through a cation-exchange resin column (Dowex AG50WX-8, Na^+ form, 3.2 ml) to separate the reaction product L-[^3H] citrulline from the unreacted residual substrate L-[^3H] arginine. The eluate was combined with another eluate resulting from the passage of a given amount of distilled water through the column and put into a minivial for recovery of L-[^3H] citrulline. Thereafter, a scintillation fluid was added and the contained radioactivity was measured with a liquid scintillation counter to determine the amount of L-[^3H] citrulline.
The activity of nNOS or eNOS was determined by subtracting the activity detected in the absence of CaCl2 and calmodulin from the activity detected in the presence of CaCl2 and calmodulin. The protein concentration of each crude enzyme sample was determined with a micro-assay kit of Bio Rad Co. Each experiment was conducted in a duplicate.

iNOS (type 2) = iNOS (type 2) (Rattus norvegicus, UniProt Q06518); experiment: NOS activity, conversion of L-[3H]arginine to L-[3H]citrulline, iNOS; assay type: biochemical; settings: 100 nM L-[3H]arginine, 37° C., 10 min
Procedure: Crude enzymes of the respective NOS isoforms were prepared by the following procedures (Nagafuji et al., Neuroreport 6, 1541-1545, 1995).
The method of measuring NOS activity was basically the same as already reported by the present inventors and consisted of determining quantitatively the conversion of a substrate L-[^3H]arginine to a reaction product L-[^3H] citrulline (Nagafuji et al., in Brain Edema IX (Ito et al, eds.) 60, pp. 285-288, 1994; Nagafuji et al., Neuroreport 6, 1541-1545, 1995)
The reaction solution consisted of 100 nM L-[^3H] arginine, a prepared crude NOS enzyme sample (10-30 μg/ml protein), 1.25 mM CaCl2, 1 mM EDTA, 10 μg/ml calmodulin, 1 mM NADPH, 100 μM tetrahydrobiopterine, 10 μM FAD, 10 μM FMN and 50 mM Tris-HCl (pH 7.4), to which one of the compounds of the invention or one of the control compounds was added.
as §1

eNOS (type 3) = target: T2, eNOS (type 3) (Bos taurus, UniProt P29473); experiment: NOS activity, conversion of L-[3H]arginine to L-[3H]citrulline, crude enzyme of eNOS; assay type: biochemical, cow; settings: for IC50: crude enzyme from cow pulmonary arterial endothelium cells (CPAE), 100 nM L-[3H]arginine, 37° C., 10 min; for Ratio of IC50 eNOS/inos: index of selectivity
T2 construct: Cow pulmonary arterial endothelium cells (CPAE) were cultured in a MEM medium containing 20% FBS; endogenous in cells; host or cells: CPAE (cow pulmonary arterial endothelium cells), detergent extract, 100,000 x g supernatant
T2 sequence (P29473 2-1205): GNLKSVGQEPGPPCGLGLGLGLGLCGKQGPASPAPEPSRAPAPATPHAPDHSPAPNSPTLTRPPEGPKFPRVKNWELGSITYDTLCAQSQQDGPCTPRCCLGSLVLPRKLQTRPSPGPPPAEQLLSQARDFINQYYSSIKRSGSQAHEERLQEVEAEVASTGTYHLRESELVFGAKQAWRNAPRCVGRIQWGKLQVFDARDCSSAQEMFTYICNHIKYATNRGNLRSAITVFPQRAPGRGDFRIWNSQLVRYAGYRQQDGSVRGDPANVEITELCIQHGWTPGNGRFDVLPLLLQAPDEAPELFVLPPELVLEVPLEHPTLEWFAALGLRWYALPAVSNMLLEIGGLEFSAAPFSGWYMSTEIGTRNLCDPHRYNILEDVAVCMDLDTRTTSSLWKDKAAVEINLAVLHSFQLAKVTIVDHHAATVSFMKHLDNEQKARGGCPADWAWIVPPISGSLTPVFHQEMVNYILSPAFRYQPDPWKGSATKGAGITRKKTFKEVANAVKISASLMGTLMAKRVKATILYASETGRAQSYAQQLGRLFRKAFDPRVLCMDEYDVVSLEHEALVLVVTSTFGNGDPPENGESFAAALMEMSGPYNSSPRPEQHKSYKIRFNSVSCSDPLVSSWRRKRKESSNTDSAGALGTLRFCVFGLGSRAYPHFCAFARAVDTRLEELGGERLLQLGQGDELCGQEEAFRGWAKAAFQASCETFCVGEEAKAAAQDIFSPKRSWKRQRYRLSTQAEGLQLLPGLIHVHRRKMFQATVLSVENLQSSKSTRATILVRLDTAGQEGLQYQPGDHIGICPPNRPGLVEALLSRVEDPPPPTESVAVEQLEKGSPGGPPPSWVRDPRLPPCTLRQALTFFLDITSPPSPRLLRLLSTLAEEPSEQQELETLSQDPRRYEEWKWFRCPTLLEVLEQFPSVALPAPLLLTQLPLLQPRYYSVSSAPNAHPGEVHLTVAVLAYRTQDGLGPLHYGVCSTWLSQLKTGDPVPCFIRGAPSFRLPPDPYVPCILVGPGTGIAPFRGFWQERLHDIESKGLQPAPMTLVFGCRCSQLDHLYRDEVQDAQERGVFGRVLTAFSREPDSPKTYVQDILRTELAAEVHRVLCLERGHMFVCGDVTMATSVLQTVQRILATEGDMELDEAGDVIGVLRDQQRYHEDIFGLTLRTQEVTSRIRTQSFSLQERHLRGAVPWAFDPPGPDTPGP

Sequence of iNOS (type 2) (Q06518 whole entry, canonical isoform): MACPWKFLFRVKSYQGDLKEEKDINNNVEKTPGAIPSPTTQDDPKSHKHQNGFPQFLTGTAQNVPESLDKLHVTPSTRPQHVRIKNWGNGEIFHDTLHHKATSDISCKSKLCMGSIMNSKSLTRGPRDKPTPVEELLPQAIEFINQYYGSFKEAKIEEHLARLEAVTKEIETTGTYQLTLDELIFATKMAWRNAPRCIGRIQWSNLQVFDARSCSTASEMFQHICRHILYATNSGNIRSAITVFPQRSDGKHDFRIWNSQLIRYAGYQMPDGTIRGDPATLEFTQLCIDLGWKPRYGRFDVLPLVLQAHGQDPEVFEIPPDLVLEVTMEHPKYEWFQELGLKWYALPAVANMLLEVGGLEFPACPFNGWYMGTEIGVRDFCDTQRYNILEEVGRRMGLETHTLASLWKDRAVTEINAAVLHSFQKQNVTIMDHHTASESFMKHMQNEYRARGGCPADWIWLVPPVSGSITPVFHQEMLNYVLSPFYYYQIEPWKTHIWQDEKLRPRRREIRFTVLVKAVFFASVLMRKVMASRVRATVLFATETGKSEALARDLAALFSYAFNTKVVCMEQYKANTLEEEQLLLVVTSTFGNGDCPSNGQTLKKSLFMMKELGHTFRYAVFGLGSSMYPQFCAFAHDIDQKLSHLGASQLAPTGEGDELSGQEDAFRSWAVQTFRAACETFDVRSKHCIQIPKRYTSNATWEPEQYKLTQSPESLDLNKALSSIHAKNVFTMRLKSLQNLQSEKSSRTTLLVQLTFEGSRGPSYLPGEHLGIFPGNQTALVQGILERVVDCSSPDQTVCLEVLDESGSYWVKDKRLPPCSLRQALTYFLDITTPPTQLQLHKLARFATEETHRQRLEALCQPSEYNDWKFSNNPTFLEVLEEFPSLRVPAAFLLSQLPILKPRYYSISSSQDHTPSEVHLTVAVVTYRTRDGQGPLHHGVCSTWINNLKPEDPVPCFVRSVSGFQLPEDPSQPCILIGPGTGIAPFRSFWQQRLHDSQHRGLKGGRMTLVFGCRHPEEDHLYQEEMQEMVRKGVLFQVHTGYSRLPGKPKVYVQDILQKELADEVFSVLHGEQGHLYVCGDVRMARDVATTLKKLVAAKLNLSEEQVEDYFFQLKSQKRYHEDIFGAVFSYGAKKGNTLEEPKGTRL

SMILES	IC50 (nNOS (type 1))	Ratio of IC50 eNOS/nNOS (nNOS (type 1))	Ratio of IC50 iNOS/nNOS (nNOS (type 1))	IC50 (iNOS (type 2))	IC50 (eNOS (type 3))	Ratio of IC50 eNOS/inos (eNOS (type 3))	nNOS inhibiting activity compared with L-MIN (nNOS (type 1); comparison drawn from Table 2)	selectivity for nNOS inhibition over eNOS compared with L-EIN (nNOS (type 1); comparison drawn from Table 2)	pIC50 (nNOS (type 1))
N=C(NCCC[C@H](N)C(=O)O)NC1CC1 [L-CPA, N^G-cyclopropyl-L-arginine]				7150 nM	1540 nM				
CCSC(=N)NCCC[C@H](N)C(=O)O [L-EIN, S-ethyl-L-thiocitrulline]				6760 nM	732 nM				8.08
CSC(=N)NCCC[C@H](N)C(=O)O [L-MIN, S-methyl-L-thiocitrulline, reference compound]		6.28	43.3	248 nM	35.8 nM	0.145			8.24
N=C(NCCC[C@H](N)C(=O)O)N[N+](=O)[O-] [L-NA, N^G-nitro-L-arginine]				3460 nM					
COC(=O)[C@@H](N)CCCNC(=N)N[N+](=O)[O-] [L-NAME, N^G-nitro-L-arginine methyl ester, reference compound]				13500 nM	670 nM				

The next lines start with results.

IC50 (nNOS (type 1))	Ratio of IC50 eNOS/nNOS (nNOS (type 1))	Ratio of IC50 iNOS/nNOS (nNOS (type 1))	IC50 (iNOS (type 2))	IC50 (eNOS (type 3))	Ratio of IC50 eNOS/inos (eNOS (type 3))	SMILES	nNOS inhibiting activity compared with L-MIN (nNOS (type 1); comparison drawn from Table 2)	selectivity for nNOS inhibition over eNOS compared with L-EIN (nNOS (type 1); comparison drawn from Table 2)	pIC50 (nNOS (type 1))
3.7 nM	515	2120	7930 nM	1920 nM	0.243	CCSC(=N)Nc1ccc(-n2cccc2)c(CN)c1 [Example 1, N-(3-aminomethyl-4-(pyrrol-1-yl)phenyl)-S-ethylisothiourea dihydrochloride]	more potent nNOS inhibiting activity than L-MIN	higher selectivity for nNOS inhibition over eNOS than L-EIN	
6.3 nM	816	3260	20500 nM	5130 nM	0.250	CCSC(=N)Nc1ccc(-n2cccn2)c(CN)c1 [Example 2, N-(3-aminomethyl-4-(pyrazol-1-yl)phenyl)-S-ethylisothiourea dihydrochloride]		higher selectivity for nNOS inhibition over eNOS than L-EIN	
22.4 nM	943			21100 nM		CCSC(=N)Nc1ccc(-n2cccn2)c(CN)c1C [Example 7, N-(3-aminomethyl-2-methyl-4-(pyrazol-1-yl)phenyl)-S-ethylisothiourea dihydrochloride]		higher selectivity for nNOS inhibition over eNOS than L-EIN	
